Experimental data: the kinase profiling compilation of Christmann-Franck et al. (2016)

How the values were obtained:
Assay in all cases: radiometric filter-binding kinase assay, Kinase HotSpot
Conditions in all cases: compound 0.5 µM; ATP 10 µM
PASK (human) = PASK (human) (UniProt Q96RG2)
CAMK1G (human) = CAMK1G (human) (UniProt Q96NX5)
DYRK2 (human) = DYRK2 (human) (UniProt Q92630)
MUSK (human) = MUSK (human) (UniProt O15146)
EPHA3 (human) = EPHA3 (human) (UniProt P29320)
NEK2 (human) = NEK2 (human) (UniProt P51955)
ROS1 (human) = ROS1 (human) (UniProt P08922)
PAK7 (human) = PAK7 (human) (UniProt Q9P286)
IRAK1 (human) = IRAK1 (human) (UniProt P51617)
IRAK1 (human), sequence (P51617 whole entry, looked up): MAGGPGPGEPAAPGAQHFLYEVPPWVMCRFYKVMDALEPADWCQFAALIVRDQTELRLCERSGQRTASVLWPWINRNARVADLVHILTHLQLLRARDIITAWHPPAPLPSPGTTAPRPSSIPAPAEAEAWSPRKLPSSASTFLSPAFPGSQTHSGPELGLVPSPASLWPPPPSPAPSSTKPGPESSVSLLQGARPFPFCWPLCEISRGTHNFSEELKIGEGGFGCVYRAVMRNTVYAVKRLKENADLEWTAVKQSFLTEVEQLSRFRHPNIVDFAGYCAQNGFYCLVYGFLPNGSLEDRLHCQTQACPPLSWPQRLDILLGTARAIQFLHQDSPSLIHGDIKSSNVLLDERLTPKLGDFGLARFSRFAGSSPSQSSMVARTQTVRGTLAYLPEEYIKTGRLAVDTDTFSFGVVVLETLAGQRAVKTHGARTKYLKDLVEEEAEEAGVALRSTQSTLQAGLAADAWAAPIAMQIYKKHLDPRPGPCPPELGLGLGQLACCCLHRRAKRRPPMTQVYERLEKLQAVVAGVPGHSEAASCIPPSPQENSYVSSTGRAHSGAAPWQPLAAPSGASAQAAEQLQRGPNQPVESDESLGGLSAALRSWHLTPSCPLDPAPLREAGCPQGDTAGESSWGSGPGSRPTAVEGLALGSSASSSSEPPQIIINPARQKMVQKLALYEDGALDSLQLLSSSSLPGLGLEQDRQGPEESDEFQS

RPS6KA1 KD1 KD2 (human) = RPS6KA1 KD1 KD2 (human) (UniProt Q15418)
TAOK3 (human) = TAOK3 (human) (UniProt Q9H2K8)
TAOK3 (human), sequence (Q9H2K8 whole entry, looked up): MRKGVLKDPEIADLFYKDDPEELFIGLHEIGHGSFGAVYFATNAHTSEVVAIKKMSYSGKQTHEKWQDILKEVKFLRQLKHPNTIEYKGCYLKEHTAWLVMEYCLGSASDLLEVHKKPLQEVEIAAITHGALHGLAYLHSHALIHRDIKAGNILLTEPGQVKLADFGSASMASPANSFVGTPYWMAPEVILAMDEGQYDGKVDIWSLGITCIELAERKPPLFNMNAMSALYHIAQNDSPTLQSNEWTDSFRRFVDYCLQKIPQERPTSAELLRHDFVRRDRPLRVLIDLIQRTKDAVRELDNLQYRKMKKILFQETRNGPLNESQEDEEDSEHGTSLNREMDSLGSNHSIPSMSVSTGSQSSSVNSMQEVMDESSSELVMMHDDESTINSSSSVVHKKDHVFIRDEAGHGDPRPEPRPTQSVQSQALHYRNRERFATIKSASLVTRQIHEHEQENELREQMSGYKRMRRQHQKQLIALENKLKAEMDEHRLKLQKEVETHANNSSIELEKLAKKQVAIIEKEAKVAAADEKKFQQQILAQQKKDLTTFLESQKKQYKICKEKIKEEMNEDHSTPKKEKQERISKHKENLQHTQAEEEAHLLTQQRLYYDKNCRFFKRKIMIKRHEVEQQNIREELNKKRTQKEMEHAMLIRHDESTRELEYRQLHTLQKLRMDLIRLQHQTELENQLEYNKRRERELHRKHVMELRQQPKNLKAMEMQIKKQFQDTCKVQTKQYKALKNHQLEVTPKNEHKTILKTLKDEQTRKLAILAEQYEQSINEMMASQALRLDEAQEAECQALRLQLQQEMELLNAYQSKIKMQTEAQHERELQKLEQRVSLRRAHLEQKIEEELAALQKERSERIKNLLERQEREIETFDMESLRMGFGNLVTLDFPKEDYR

MARK2 (human) = MARK2 (human) (UniProt Q7KZI7)
PDGFRA (human) = PDGFRA (human) (UniProt P16234)
CSNK1G3 (human) = CSNK1G3 (human) (UniProt Q9Y6M4)
NUAK1 (human) = NUAK1 (human) (UniProt O60285)
NUAK1 (human), sequence (O60285 whole entry, looked up): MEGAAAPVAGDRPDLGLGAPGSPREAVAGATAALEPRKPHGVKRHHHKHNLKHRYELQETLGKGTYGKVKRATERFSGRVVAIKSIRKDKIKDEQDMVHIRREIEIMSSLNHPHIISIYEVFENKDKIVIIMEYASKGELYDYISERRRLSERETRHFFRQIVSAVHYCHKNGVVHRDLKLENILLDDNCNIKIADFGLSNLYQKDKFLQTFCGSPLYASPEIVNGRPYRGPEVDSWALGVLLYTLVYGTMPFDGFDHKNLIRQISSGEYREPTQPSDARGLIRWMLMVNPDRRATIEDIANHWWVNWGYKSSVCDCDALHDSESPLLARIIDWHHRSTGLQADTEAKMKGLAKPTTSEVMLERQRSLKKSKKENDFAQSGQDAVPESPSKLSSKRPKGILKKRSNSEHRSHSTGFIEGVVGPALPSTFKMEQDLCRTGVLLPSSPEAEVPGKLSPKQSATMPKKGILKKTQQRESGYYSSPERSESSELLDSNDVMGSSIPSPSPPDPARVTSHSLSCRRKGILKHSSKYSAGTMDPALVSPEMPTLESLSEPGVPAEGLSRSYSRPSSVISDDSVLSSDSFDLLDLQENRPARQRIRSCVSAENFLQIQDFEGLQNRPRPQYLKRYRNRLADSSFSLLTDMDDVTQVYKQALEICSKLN

ADRBK2 (human) = ADRBK2 (human) (UniProt P35626)
HIPK3 (human) = HIPK3 (human) (UniProt Q9H422)
CAMK2D (human) = CAMK2D (human) (UniProt Q13557)
MAPK11 (human) = MAPK11 (human) (UniProt Q15759)
FGFR2 (human) = FGFR2 (human) (UniProt P21802)
FGFR2 (human), sequence (P21802 whole entry, looked up): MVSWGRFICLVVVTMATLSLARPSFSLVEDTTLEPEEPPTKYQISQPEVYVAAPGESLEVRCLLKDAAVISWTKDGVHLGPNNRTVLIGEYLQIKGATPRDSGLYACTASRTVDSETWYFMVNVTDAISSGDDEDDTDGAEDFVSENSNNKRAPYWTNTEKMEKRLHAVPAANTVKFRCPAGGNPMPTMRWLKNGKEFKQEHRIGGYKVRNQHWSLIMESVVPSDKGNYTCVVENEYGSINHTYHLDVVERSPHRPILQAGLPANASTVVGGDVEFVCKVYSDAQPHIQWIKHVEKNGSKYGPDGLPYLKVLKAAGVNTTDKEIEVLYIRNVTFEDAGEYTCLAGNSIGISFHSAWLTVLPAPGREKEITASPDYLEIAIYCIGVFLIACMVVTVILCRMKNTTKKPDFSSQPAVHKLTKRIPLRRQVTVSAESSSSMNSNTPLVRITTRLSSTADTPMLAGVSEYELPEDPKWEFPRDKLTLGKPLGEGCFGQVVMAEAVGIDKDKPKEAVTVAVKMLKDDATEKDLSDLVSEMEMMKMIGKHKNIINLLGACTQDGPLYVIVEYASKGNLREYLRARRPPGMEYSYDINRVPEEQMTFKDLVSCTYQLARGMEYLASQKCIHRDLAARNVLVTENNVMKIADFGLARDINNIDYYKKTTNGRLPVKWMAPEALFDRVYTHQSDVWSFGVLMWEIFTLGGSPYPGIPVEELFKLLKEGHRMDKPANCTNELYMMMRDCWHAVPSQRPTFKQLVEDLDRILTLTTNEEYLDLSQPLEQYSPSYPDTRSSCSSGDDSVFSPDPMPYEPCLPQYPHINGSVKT

ROCK2 (human) = ROCK2 (human) (UniProt O75116)
STK39 (human) = STK39 (human) (UniProt Q9UEW8)
ZAP70 (human) = ZAP70 (human) (UniProt P43403)
EPHA2 (human) = EPHA2 (human) (UniProt P29317)
RPS6KA6 KD1 KD2 (human) = RPS6KA6 KD1 KD2 (human) (UniProt Q9UK32)
VRK1 (human) = VRK1 (human) (UniProt Q99986)
NUAK2 (human) = NUAK2 (human) (UniProt Q9H093)
NEK3 (human) = NEK3 (human) (UniProt P51956)
NEK9 (human) = NEK9 (human) (UniProt Q8TD19)
EPHB1 (human) = EPHB1 (human) (UniProt P54762)
MELK (human) = MELK (human) (UniProt Q14680)
GRK5 (human) = GRK5 (human) (UniProt P34947)
MLTK (human) = MLTK (human) (UniProt Q9NYL2)
SRMS (human) = SRMS (human) (UniProt Q9H3Y6)
IRAK4 (human) = IRAK4 (human) (UniProt Q9NWZ3)
PAK4 (human) = PAK4 (human) (UniProt O96013)
CDC42BPA (human) = CDC42BPA (human) (UniProt Q5VT25)
PRKD2 (human) = PRKD2 (human) (UniProt Q9BZL6)
PNCK (human) = PNCK (human) (UniProt Q6P2M8)
PNCK (human), sequence (Q6P2M8 whole entry, looked up): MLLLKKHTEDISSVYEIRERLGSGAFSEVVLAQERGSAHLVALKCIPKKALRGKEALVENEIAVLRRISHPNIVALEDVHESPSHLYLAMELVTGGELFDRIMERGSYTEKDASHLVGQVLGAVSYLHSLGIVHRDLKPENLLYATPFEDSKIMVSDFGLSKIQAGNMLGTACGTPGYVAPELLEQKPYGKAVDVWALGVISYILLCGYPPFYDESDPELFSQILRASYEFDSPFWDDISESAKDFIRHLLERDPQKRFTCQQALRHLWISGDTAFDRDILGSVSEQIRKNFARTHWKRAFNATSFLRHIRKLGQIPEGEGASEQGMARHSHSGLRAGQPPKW

RPS6KA3 KD1 KD2 (human) = RPS6KA3 KD1 KD2 (human) (UniProt P51812)
RPS6KA3 KD1 KD2 (human), sequence (P51812 whole entry, looked up): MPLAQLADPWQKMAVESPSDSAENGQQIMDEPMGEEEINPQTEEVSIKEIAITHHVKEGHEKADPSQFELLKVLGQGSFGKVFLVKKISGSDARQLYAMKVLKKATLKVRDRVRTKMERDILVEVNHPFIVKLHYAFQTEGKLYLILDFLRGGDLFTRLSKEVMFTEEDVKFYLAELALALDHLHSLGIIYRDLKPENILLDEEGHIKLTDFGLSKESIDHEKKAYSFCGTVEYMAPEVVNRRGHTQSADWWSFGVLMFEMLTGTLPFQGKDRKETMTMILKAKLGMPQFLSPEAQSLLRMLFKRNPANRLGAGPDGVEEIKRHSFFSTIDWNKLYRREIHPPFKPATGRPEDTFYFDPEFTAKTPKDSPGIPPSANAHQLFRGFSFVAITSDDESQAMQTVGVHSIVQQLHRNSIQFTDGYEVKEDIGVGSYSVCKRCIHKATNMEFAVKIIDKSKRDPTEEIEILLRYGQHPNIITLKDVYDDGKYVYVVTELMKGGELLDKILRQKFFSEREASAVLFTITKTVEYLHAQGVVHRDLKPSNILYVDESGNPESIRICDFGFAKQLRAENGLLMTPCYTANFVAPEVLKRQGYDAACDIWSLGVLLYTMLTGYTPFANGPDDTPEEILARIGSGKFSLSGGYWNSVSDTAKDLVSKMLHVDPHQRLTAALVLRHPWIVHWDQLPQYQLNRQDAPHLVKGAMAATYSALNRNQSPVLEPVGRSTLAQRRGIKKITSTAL

STK17A (human) = STK17A (human) (UniProt Q9UEE5)
CAMK2G (human) = CAMK2G (human) (UniProt Q13555)

MUSK (human), sequence (O15146 whole entry, looked up): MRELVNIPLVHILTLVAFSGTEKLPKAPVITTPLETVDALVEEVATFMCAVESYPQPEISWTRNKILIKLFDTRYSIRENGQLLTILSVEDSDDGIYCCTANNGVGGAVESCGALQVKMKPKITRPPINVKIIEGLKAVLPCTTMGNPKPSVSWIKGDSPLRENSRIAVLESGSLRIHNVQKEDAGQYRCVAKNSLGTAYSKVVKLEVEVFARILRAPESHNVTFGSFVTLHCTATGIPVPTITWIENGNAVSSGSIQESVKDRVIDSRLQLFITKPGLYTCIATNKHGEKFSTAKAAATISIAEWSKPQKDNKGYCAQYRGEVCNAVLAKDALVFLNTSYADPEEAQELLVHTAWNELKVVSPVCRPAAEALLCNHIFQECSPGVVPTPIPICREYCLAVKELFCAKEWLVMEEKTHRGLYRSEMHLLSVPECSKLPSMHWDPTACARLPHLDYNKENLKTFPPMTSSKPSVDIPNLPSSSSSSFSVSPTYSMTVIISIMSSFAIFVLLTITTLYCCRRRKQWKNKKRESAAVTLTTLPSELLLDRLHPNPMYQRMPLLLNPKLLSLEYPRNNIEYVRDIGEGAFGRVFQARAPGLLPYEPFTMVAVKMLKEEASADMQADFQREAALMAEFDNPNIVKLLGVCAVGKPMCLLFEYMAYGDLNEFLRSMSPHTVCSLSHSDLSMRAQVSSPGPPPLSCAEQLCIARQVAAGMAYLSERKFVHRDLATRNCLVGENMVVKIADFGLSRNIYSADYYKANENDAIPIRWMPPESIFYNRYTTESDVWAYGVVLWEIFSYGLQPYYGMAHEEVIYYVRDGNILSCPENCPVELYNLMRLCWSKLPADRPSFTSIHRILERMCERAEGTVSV

O=c1c(-c2ccc(F)cc2)c(-c2ccncc2)[nH]n1-c1ccc(Cl)cc1
residual activity (PASK (human)): 93.6%
residual activity (CAMK1G (human)): 104%
residual activity (DYRK2 (human)): 86.9%
residual activity (MUSK (human)): 102%
residual activity (EPHA3 (human)): 84.4%
residual activity (NEK2 (human)): 85.4%
residual activity (ROS1 (human)): 97.6%
residual activity (PAK7 (human)): 86.3%
residual activity (IRAK1 (human)): 103%
residual activity (RPS6KA1 KD1 KD2 (human)): 103%
residual activity (TAOK3 (human)): 89.5%
residual activity (MARK2 (human)): 88.8%
residual activity (PDGFRA (human)): 103%
residual activity (CSNK1G3 (human)): 102%
residual activity (NUAK1 (human)): 89.1%
residual activity (ADRBK2 (human)): 95%
residual activity (HIPK3 (human)): 101%
residual activity (CAMK2D (human)): 95.6%
residual activity (MAPK11 (human)): 55.9%
residual activity (FGFR2 (human)): 94%
residual activity (ROCK2 (human)): 89.5%
residual activity (STK39 (human)): 128%
residual activity (ZAP70 (human)): 108%
residual activity (EPHA2 (human)): 101%
residual activity (RPS6KA6 KD1 KD2 (human)): 90.3%
residual activity (VRK1 (human)): 92.9%
residual activity (NUAK2 (human)): 88.7%
residual activity (NEK3 (human)): 100%
residual activity (NEK9 (human)): 107%
residual activity (EPHB1 (human)): 90.5%
residual activity (MELK (human)): 86.5%
residual activity (GRK5 (human)): 90.3%
residual activity (MLTK (human)): 91.2%
residual activity (SRMS (human)): 104%
residual activity (IRAK4 (human)): 81.9%
residual activity (PAK4 (human)): 82%
residual activity (CDC42BPA (human)): 98%
residual activity (PRKD2 (human)): 73.4%
residual activity (PNCK (human)): 92%
residual activity (RPS6KA3 KD1 KD2 (human)): 94.3%
residual activity (STK17A (human)): 105%
residual activity (CAMK2G (human)): 109%

Cn1cc(/C=C2\C(=O)Nc3ccc(S(N)(=O)=O)cc32)c2ccccc21
residual activity (PASK (human)): 84.8%
residual activity (CAMK1G (human)): 89.2%
residual activity (DYRK2 (human)): 85.5%
residual activity (MUSK (human)): 105%
residual activity (EPHA3 (human)): 80.9%
residual activity (NEK2 (human)): 89.1%
residual activity (ROS1 (human)): 82.2%
residual activity (PAK7 (human)): 75.3%
residual activity (IRAK1 (human)): 14.2%
residual activity (RPS6KA1 KD1 KD2 (human)): 12.7%
residual activity (TAOK3 (human)): 60.2%
residual activity (MARK2 (human)): 45.5%
residual activity (PDGFRA (human)): 81%
residual activity (CSNK1G3 (human)): 109%
residual activity (NUAK1 (human)): 5.88%
residual activity (ADRBK2 (human)): 111%
residual activity (HIPK3 (human)): 105%
residual activity (CAMK2D (human)): 66.8%
residual activity (MAPK11 (human)): 93.8%
residual activity (FGFR2 (human)): 50.5%
residual activity (ROCK2 (human)): 41%
residual activity (STK39 (human)): 79.3%
residual activity (ZAP70 (human)): 102%
residual activity (EPHA2 (human)): 93%
residual activity (RPS6KA6 KD1 KD2 (human)): 6.55%
residual activity (VRK1 (human)): 103%
residual activity (NUAK2 (human)): 102%
residual activity (NEK3 (human)): 66.2%
residual activity (NEK9 (human)): 67.3%
residual activity (EPHB1 (human)): 68.7%
residual activity (MELK (human)): 63%
residual activity (GRK5 (human)): 86.3%
residual activity (MLTK (human)): 95%
residual activity (SRMS (human)): 99.8%
residual activity (IRAK4 (human)): 2.98%
residual activity (PAK4 (human)): 86.2%
residual activity (CDC42BPA (human)): 70.7%
residual activity (PRKD2 (human)): 87.2%
residual activity (PNCK (human)): 58.1%
residual activity (RPS6KA3 KD1 KD2 (human)): 12.4%
residual activity (STK17A (human)): 57.5%
residual activity (CAMK2G (human)): 91.9%
